Measurements published in US11759454B2, “Diazole lactams” (CHEMOCENTRYX, INC., priority 2012, dated 2023).
pIC50: −log10 of the molar value.

Legend:
[1] = target: T1, CCR1 (Homo sapiens, UniProt P32246); experiment: Chemotaxis assay (inhibition of CCR1 mediated migration); type: cell-based; details: chemotaxis of THP-1 or monocyte cells toward CCR1 chemokine ligand (MIP-1α, CCL15/leukotactin); read-out: Avg Mig IC50
T1 construct: host or cells: THP-1 cells (or freshly isolated monocytes)
T1 sequence (P32246 1-355): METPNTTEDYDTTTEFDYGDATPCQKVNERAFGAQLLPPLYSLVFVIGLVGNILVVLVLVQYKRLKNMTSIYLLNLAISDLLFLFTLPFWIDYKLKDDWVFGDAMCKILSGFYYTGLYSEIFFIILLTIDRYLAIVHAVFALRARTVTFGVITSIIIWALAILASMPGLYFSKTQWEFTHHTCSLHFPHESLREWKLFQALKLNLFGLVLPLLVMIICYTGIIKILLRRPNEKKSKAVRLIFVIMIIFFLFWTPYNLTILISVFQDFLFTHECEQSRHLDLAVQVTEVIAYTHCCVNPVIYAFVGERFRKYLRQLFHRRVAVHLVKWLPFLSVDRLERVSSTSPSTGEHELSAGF
Procedure: THP-1 cells were obtained from ATCC (TIB-202) and cultured as a suspension in RPMI-1640 medium supplemented with 2 mM L-glutamine, 1.5 g/L sodium bicarbonate, 4.5 g/L glucose, 10 mM HEPES, 1 mM sodium pyruvate, 0.05% 2-mercaptoethanol and 10% FBS. Cells were grown under 5% CO2/95% air, 100% humidity at 37° C. and subcultured twice weekly at 1:5 (cells were cultured at a density range of 2×10^5 to 2×10^6 cells/mL) and harvested at 1×10^6 cells/mL. THP-1 cells express CCR1 and can be used in CCR1 binding and functional assays.
Chemotaxis assays were performed using 5 μm pore polycarbonate, polyvinylpyrrolidone-coated filters in 96-well chemotaxis chambers (Neuroprobe; Gaithersburg, Md.) using chemotaxis buffer (Hank's balanced salt solution (HBSS) and 1% FBS). CCR1 chemokine ligands (i.e., MIP-1α, CCL15/Leukotactin; R&D Systems; Minneapolis, Minn.) are use to evaluate compound mediated inhibition of CCR1 mediated migration. Other chemokines (i.e., SDF-1α; R&D Systems; Minneapolis, Minn.) are used as specificity controls. The lower chamber was loaded with 29 μl of chemokine (i.e., 0.1 nM CCL15/Leukotactin) and varying amounts of compound; the top chamber contained 100,000 THP-1 or monocyte cells in 20 μl. The chambers were incubated 1-2 hours at 37° C., and the number of cells in the lower chamber quantified either by direct cell counts in five high powered fields per well or by the CyQuant assay (Molecular Probes), a fluorescent dye method that measures nucleic acid content and microscopic observation.
One of the primary functions of chemokines is their ability to mediate the migration of chemokine receptor-expressing cells, such as white blood cells. To confirm that a compound of interest inhibited not only CCR1 specific binding and signaling (at least as determined by calcium mobilization assays), but also CCR1 mediated migration, a chemotaxis assay was employed. THP-1 myelomonocytic leukemia cells, which resemble monocytes, as wells as freshly isolated monocytes, were used as targets for chemoattraction by CCR1 chemokine ligands (i.e., MIP-1α, CCL15/leukotactin). Cells were placed in the top compartment of a microwell migration chamber, while MIP-1α (or other potent CCR1 chemokine ligand) and increasing concentrations of a compound of interest was loaded in the lower chamber. […] To ascertain a compound of interest's affinity for CCR1 as well as to confirm its ability to inhibit CCR1 mediated cell migration, inhibitory activity was titered over a 1×10^−10 to 1×10^−4 M range of compound concentrations in this chemotaxis assay. In this assay, the amount of compound was varied; while cell number and chemokine agonist concentrations were held constant. After the chemotaxis chambers were incubated 1-2 hours at 37° C., the responding cells in the lower chamber were quantified by labeling with the CyQuant assay (Molecular Probes), a fluorescent dye method that measures nucleic acid content, and by measuring with a Spectrafluor Plus (Tecan). The computer program Prism from GraphPad, Inc. (San Diego, Calif.) was used to calculate IC50 values. IC50 values are those compound concentrations required to inhibit the number of cells responding to a CCR1 agonist by 50%.

[2] = tested on: inflammatory cells recruited to the inflamed synovial fluid of the knee joints; experiment: Rabbit model of destructive joint inflammation (rabbit LPS study); type: in vivo; details: female New Zealand rabbits, intra-articular LPS 10 ng, oral dosing in 1% methocel 2 h before and 4 h after LPS, lavage at 16 h
Procedure: a) Rabbit Model of Destructive Joint Inflammation
A rabbit LPS study was conducted essentially as described in Podolin, et al. J. Immunol. 169(11):6435-6444 (2002). Female New Zealand rabbits (approximately 2 kilograms) were treated intra-articularly in both knees with LPS (10 ng). The compound of interest, for example 1.016, (formulated in 1% methocel) or vehicle (1% methocel) was dosed orally at a 5 ml/kg dose volume at two times (2 hours before the intra-articular LP S injection and 4 hours after the intra-articular LP S injection). Sixteen hours after the LP S injection, knees were lavaged and cells counts were performed. Beneficial effects of treatment were determined by reduction in the number of inflammatory cells recruited to the inflamed synovial fluid of the knee joints.

[3] = tested on: CCR1 bearing neutrophils; experiment: Murine model of inflammation (thioglycolate induced peritoneal inflammation); type: in vivo; details: 3% thioglycolate into the peritoneum
Procedure: Murine Model of Inflammation
A method of inducing peritoneal inflammation by the introduction of 3% thioglycolate into the peritoneum is well know in the art. Following the introduction of thioglycolate, a rapid influx of immune cells to the site, primarily CCR1 bearing neutrophils, results in local inflammation at 24 hours. A peritoneal exudate can be sampled, and the cell number and composition can be assessed to determine the anti-inflammatory properties of a compound of interest administered before, during or after the thioglycolate induction.

pIC50 [1] | Structure (SMILES) | further results
4.70 to 7.00 | Cc1c(Cl)c(C(F)(F)F)nn1C1CCN(c2cnn(-c3cccc(F)c3)c2C2CC2)C1=O (stereo not drawn) [Compound 1.024] | 
≥ 7.00 | Cc1nc(C(F)(F)F)cn1C1CCN(c2cnn(-c3ccc(F)cc3)c2C(C)C)C1=O (stereo not drawn) [Compound 1.025] | 
4.70 to 7.00 | Cc1c(Cl)c(C(F)(F)F)nn1C1CCN(c2cnn(-c3ccc(F)cc3)c2-c2ccccc2)C1=O (stereo not drawn) [Compound 1.026] | 
4.70 to 7.00 | Cc1c(Cl)c(C(F)(F)F)nn1C1CCN(c2cnn(-c3cccc(F)c3)c2-c2ccoc2)C1=O (stereo not drawn) [Compound 1.027] | 
≥ 7.00 | Cc1c(Cl)c(C(F)(F)F)nn1C1CCN(c2cnn(-c3ccc(F)cc3)c2C(C)C)C1=O (stereo not drawn) [Compound 1.028] | 
4.70 to 7.00 | Cc1c(N2CCCCC(n3nc(C(F)(F)F)c(Cl)c3C)C2=O)cnn1-c1ccc(F)cc1 (stereo not drawn) [Compound 1.029] | 
4.70 to 7.00 | Cc1c(N2CCCC(n3nc(C(F)(F)F)c(Cl)c3C)C2=O)cnn1-c1ccc(F)cc1 (stereo not drawn) [Compound 1.030] | 
4.70 to 7.00 | Cc1nc(C(F)(F)F)cn1C1CCCN(c2cnn(-c3ccc(F)cc3)c2C)C1=O (stereo not drawn) [Compound 1.031] | 
≥ 7.00 | CCc1c(N2CCC(n3nc(C(F)(F)F)c(Cl)c3C)C2=O)cnn1-c1ccc(F)cc1 (stereo not drawn) [Compound 1.032] | 
4.70 to 7.00 | Cc1nc(C(F)(F)F)cn1C1CCN(c2cnn(-c3ccc(F)cc3)c2C)C1=O (stereo not drawn) [Compound 1.033] | 
4.70 to 7.00 | Cc1c(N2CCC(n3nc(C(F)(F)F)nc3C)C2=O)cnn1-c1ccc(F)cc1 (stereo not drawn) [Compound 1.034] | 
4.70 to 7.00 | Cc1c(N2CCC(n3nc(C(F)(F)F)c(Cl)c3C)C2=O)cnn1-c1ccc(F)cc1 (stereo not drawn) [Compound 1.035] | 
4.70 to 7.00 | Cc1nc(C(F)(F)F)cn1C1CCCN(c2cnn(-c3ccc(F)cc3)c2C)C1=O (stereo not drawn) [Compound 1.036] | 
4.70 to 7.00 | Cc1c(Cl)c(C(F)(F)F)nn1C1CCCN(c2cnn(-c3ccc(F)cc3)c2)C1=O (stereo not drawn) [Compound 1.037] | 
4.70 to 7.00 | Cc1cc(C(F)(F)F)nn1C1CCN(c2cnn(-c3ccc(F)cc3)c2)C1=O (stereo not drawn) [Compound 1.038] | 
4.70 to 7.00 | Cc1nc(C(F)(F)F)cn1C1CCN(c2cnn(-c3ccc(F)cc3)c2)C1=O (stereo not drawn) [Compound 1.039] | 
4.70 to 7.00 | Cc1c(Cl)c(C(F)(F)F)nn1C1CCN(c2cnn(-c3ccc(F)cc3)c2)C1=O (stereo not drawn) [Compound 1.040] | 
4.70 to 7.00 | COc1cc(-n2ncc(N3CC[C@H](n4cc(C(F)(F)F)nc4C)C3=O)c2C(C)C)ccc1Cl [Compound 1.041] | 
≥ 7.00 | Cc1nc(C(F)(F)F)cn1[C@H]1CCN(c2nnn(-c3ccc(Cl)cc3)c2C(C)C)C1=O [Compound 1.042] | neutrophil number in peritoneal exudate [3]: dramatic decrease; total cell number in peritoneal exudate [3]: dramatic decrease
4.70 to 7.00 | Cc1nc(C(F)(F)F)cn1C1CCN(c2cnn(-c3ccc(Cl)cc3)c2C(F)(F)F)C1=O (stereo not drawn) [Compound 1.043] | 
≥ 7.00 | Cc1nc(C(F)(F)F)cn1C1CCN(c2cnn(-c3ccc(Cl)cc3)c2C2CCC2)C1=O (stereo not drawn) [Compound 1.044] | 
≥ 7.00 | Cc1nc(C(F)(F)F)cn1[C@H]1CCN(c2cnn(-c3ccc(Cl)cc3)c2C(C)C)C1=O [Compound 1.045] | 

More lines, now with the values behind:

Structure (SMILES) | pIC50 [1] | further results
Cc1nc(C(F)(F)F)cn1C1CCN(c2cnn(-c3ccc(F)cc3)c2N(C)C)C1=O (stereo not drawn) [Compound 1.001] | 4.70 to 7.00 | 
Cc1nc(C(F)(F)F)cn1C1CCN(c2cnn(-c3ccc(F)cc3)c2OC(C)C)C1=O (stereo not drawn) [Compound 1.002] | ≥ 7.00 | 
Cc1nc(C(F)(F)F)cn1C1(C)CCN(c2cnn(-c3ccc(Cl)cc3)c2C(C)C)C1=O (stereo not drawn) [Compound 1.003] | 4.70 to 7.00 | 
CCc1nc(C(F)(F)F)cn1C1CCN(c2cnn(-c3ccc(Cl)cc3)c2C(C)C)C1=O (stereo not drawn) [Compound 1.004] | ≥ 7.00 | 
Cc1nc(C(F)(F)F)cn1C1CC(C)N(c2cnn(-c3ccc(F)cc3)c2C(C)C)C1=O (stereo not drawn) [Compound 1.005] | 4.70 to 7.00 | 
Cc1c(Cl)c(C(F)(F)F)nn1C1CCN(c2cnn(-c3ccc(F)cc3)c2C2CC2)C1=O (stereo not drawn) [Compound 1.006] | ≥ 7.00 | 
CCCc1c(N2CCC(n3nc(C(F)(F)F)c(Cl)c3C)C2=O)cnn1-c1ccc(F)cc1 (stereo not drawn) [Compound 1.007] | 4.70 to 7.00 | 
Cc1nc(C(F)(F)F)cn1C1CCN(c2cnn(-c3ccc(Cl)cc3)c2C(C)C)C1=O (stereo not drawn) [Compound 1.008] | ≥ 7.00 | 
Cc1c(Cl)c(C(F)(F)F)nn1C1CC(C)N(c2cnn(-c3ccc(F)cc3)c2C(C)C)C1=O (stereo not drawn) [Compound 1.009] | ≥ 7.00 | 
CCC(C)c1c(N2CCC(n3nc(C(F)(F)F)c(Cl)c3C)C2=O)cnn1-c1ccc(F)cc1 (stereo not drawn) [Compound 1.010] | ≥ 7.00 | 
Cc1c(Cl)c(C(F)(F)F)nn1C1CCN(c2cnn(-c3ccc(Cl)cc3)c2C(C)C)C1=O (stereo not drawn) [Compound 1.011] | ≥ 7.00 | 
C/C=C(\C)c1c(N2CCC(n3nc(C(F)(F)F)c(Cl)c3C)C2=O)cnn1-c1ccc(F)cc1 (stereo not drawn) [Compound 1.012] | 4.70 to 7.00 | 
CC(C)c1c(N2CCC(n3ccc(C(F)(F)F)n3)C2=O)cnn1-c1ccc(F)cc1 (stereo not drawn) [Compound 1.013] | 4.70 to 7.00 | 
CC(C)c1c(N2CCC(n3nc(-c4ncc[nH]4)c4c(N)ncnc43)C2=O)cnn1-c1ccc(F)cc1 (stereo not drawn) [Compound 1.014] | 4.70 to 7.00 | 
Cc1c(Cl)c(-c2ncc[nH]2)nn1C1CCN(c2cnn(-c3ccc(F)cc3)c2C(C)C)C1=O (stereo not drawn) [Compound 1.015] | 4.70 to 7.00 | 
CC(C)c1c(N2CCC(n3cnc(C(F)(F)F)c3)C2=O)cnn1-c1ccc(F)cc1 (stereo not drawn) [Compound 1.016] | 4.70 to 7.00 | reduction in the number of inflammatory cells recruited to the inflamed synovial fluid of the knee joints [2]: significant reduction in recruited inflammatory cells
Cc1nn(C2CCN(c3cnn(-c4ccc(F)cc4)c3C(C)C)C2=O)c(C(C)(C)O)c1Cl (stereo not drawn) [Compound 1.017] | 4.70 to 7.00 | 
Cc1c(Cl)c(C(C)(C)O)nn1C1CCN(c2cnn(-c3ccc(F)cc3)c2C(C)C)C1=O (stereo not drawn) [Compound 1.018] | 4.70 to 7.00 | 
CCCc1c(N2CCC(n3nc(C(F)(F)F)c(Cl)c3C)C2=O)cnn1-c1cccc(F)c1 (stereo not drawn) [Compound 1.019] | 4.70 to 7.00 | 
Cc1c(Cl)c(C(F)(F)F)nn1C1CCN(c2cnn(-c3ccc(F)cc3)c2C(C)(C)C)C1=O (stereo not drawn) [Compound 1.020] | 4.70 to 7.00 | 
CC(C)c1c(N2CCC(n3nc(-c4ncc[nH]4)c4cccnc43)C2=O)cnn1-c1ccc(F)cc1 (stereo not drawn) [Compound 1.021] | 4.70 to 7.00 | 
Cc1cc(C(F)(F)F)nn1C1CCN(c2cnn(-c3ccc(F)cc3)c2C(C)C)C1=O (stereo not drawn) [Compound 1.022] | ≥ 7.00 | 
Cc1c(Cl)c(C(F)(F)F)nn1C1CCN(c2cnn(-c3cccc(F)c3)c2I)C1=O (stereo not drawn) [Compound 1.023] | 4.70 to 7.00 | 
